This note sets out measurements from patent publication US12410262B2, “Peptide conjugates of cytotoxins as therapeutics” (Cybrexa 2, Inc., priority 2019, dated 2025).

Holding throughout (assay): cells
One test has as its system HCT116. The test is classed as cell-based, human. The gist of the method:
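DLD-1 WT (2500/well), FaDu and HeLa (5000/well) and HCT116 (3000/well) were grown in 10% FBS media and dosed in triplicate 24 h after plating. After 96 h of drug exposure at 37 °C, cells were fixed, Hoechst-stained and counted by imaging; percent growth delay was calculated versus untreated controls.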

The next test deals with DLD-1 WT cells. In kind it is cell-based. The procedure:
(§1) Cells were plated in 96 well black walled-clear bottom plates (Griener), DLD-1 WT cells at 2500 cells per well, FaDu, and HeLa cells at 5000 cells per well, and HCT116 at 3000 cells per well, in growth media containing 10% FBS. Cells were allowed to adhere at room temperature for 60 minutes before returning to a 37 C, 5% CO2 incubator. After 24 hours, media was removed and replaced with fresh growth media containing various drug concentrations. Each drug concentration was added in triplicate. Non-drug treated controls contained growth media only. Cells were returned to the incubator. Ninety-six hours after addition of drug, cells were fixed with 4% paraformaldehyde for 20 minutes and stained with Hoechst at 1 ug/mL. The plates were imaged on a Cytation 5 auto imager (BioTek) and cells were counted using CellProfiler (http://cellprofiler.org). The percent cell growth delay was calculated and data plotted using GraphPad Prism

For the next test, the system named is HeLa cells. The test is classed as cell-based. How it is done: as §1
The test system of a further test is FaDu. The test is classed as cell-based. How it is done: as §1

Where two headings read alike, the source gives them in different places. Residues, ends and D or L forms follow the SMILES beside them. *: point of attachment. X2 = CC[C@@]1(O)C(=O)OCc2c1cc1n(c2=O)Cc2c-1nc1cc(F)c(C)c3c1c2[C@@H](NC(=O)O[C@H](C)[C@@H](C)S*)CC3; X4 = CC[C@@]1(O)C(=O)OCc2c1cc1n(c2=O)Cc2c-1nc1cc(F)c(C)c3c1c2[C@@H](NC(=O)O[C@@H](C)[C@H](C)S*)CC3; X1 = CC[C@@]1(O)C(=O)OCc2c1cc1n(c2=O)Cc2c-1nc1cc(F)c(C)c3c1c2[C@@H](NC(=O)O[C@H](C)[C@H](C)S*)CC3; X6 = CC[C@@]1(O)C(=O)OCc2c1cc1n(c2=O)Cc2c-1nc1cc(F)c(C)c3c1c2[C@@H](NC(=O)OCC1(S*)CCC1)CC3

A word on the IC50: it is the concentration that inhibits the measured activity by half. Consider `CC[C@@]1(O)C(=O)OCc2c1cc1n(c2=O)Cc2c-1nc1cc(F)c(C)c3c1c2[C@@H](N)CC3` [R^8H-5, (10S,23S)-23-amino-10-ethyl-18-fluoro-10-hydroxy-19-methyl-8-oxa-4,15-diazahexacyclo[14.7.1.02,14.04,13.06,11.020,24]tetracosa-1,6(11),12,14,16(24),17,19-heptaene-5,9-dione; methanesulfonic acid, reference compound], for which the IC50 worked out at 0.05 nM in the test with HCT116 (Homo sapiens, HCT-116, HCT116 cells, 96 h after addition of drug, read-out: HCT116 (IC50)); 0.13 nM in the test on DLD-1 WT cells (Homo sapiens, DLD-1 WT cells, 96 h after addition of drug, IC = incomplete curve, read-out: DLD-1 (IC50)); 0.12 nM in the test on HeLa cells (Homo sapiens, HeLa cells, 96 h after addition of drug, read-out: HeLa (IC50)); 0.04 nM in the test with FaDu (Homo sapiens, FaDu cells, 96 h after addition of drug, read-out: FaDu (IC50)).

Consider `CC[C@H](C)[C@H](NC(=O)[C@@H]1CCCN1C(=O)[C@H](CC(N)=O)NC(=O)[C@H](CCC(N)=O)NC(=O)[C@H](CCC(=O)O)NC(=O)[C@H](C)N)C(=O)N[C@@H](Cc1ccc(O)cc1)C(=O)N[C@@H](Cc1c[nH]c2ccccc12)C(=O)N[C@@H](C)C(=O)N[C@@H](CCCNC(=N)N)C(=O)N[C@@H](Cc1ccc(O)cc1)C(=O)N[C@@H](C)C(=O)N[C@@H](CC(=O)O)C(=O)N[C@@H](Cc1c[nH]c2ccccc12)C(=O)N[C@@H](CC(C)C)C(=O)N[C@@H](Cc1ccccc1)C(=O)N[C@H](C(=O)N[C@H](C(=O)N1CCC[C@H]1C(=O)N[C@@H](CC(C)C)C(=O)N[C@@H](CC(C)C)C(=O)N[C@@H](CC(C)C)C(=O)N[C@@H](CC(C)C)C(=O)N[C@@H](CC(=O)O)C(=O)N[C@@H](CC(C)C)C(=O)N[C@@H](C)C(=O)N[C@@H](CC(C)C)C(=O)N[C@@H](CC(C)C)C(=O)N[C@H](C(=O)N[C@@H](CC(=O)O)C(=O)N[C@@H](C)C(=O)N[C@@H](CC(=O)O)C(=O)N[C@@H](CCC(=O)O)C(=O)N[C@@H](CSS[C@@H](C)[C@H](C)OC(=O)N[C@H]1CCc2c(C)c(F)cc3nc4c(c1c23)Cn1c-4cc2c(c1=O)COC(=O)[C@]2(O)CC)C(=O)NCC(=O)O)C(C)C)[C@@H](C)O)[C@@H](C)O` [Compound 5] (H-AEQNPIYWARYADWLFTTPLLLLDLALLVDADEC(X4)G-OH; N-terminus and C-terminus assumed), for which the IC50 amounted to 0.12 nM in the test on HCT116 (96 h), 0.83 nM with DLD-1 WT cells (96 h), 0.07 nM in the test on HeLa cells (96 h) and 0.06 nM in the test on FaDu (96 h).

`CC[C@H](C)[C@H](NC(=O)[C@@H]1CCCN1C(=O)[C@H](CC(N)=O)NC(=O)[C@H](CCC(N)=O)NC(=O)[C@H](CCC(=O)O)NC(=O)[C@H](C)N)C(=O)N[C@@H](Cc1ccc(O)cc1)C(=O)N[C@@H](Cc1c[nH]c2ccccc12)C(=O)N[C@@H](C)C(=O)N[C@@H](CCCNC(=N)N)C(=O)N[C@@H](Cc1ccc(O)cc1)C(=O)N[C@@H](C)C(=O)N[C@@H](CC(=O)O)C(=O)N[C@@H](Cc1c[nH]c2ccccc12)C(=O)N[C@@H](CC(C)C)C(=O)N[C@@H](Cc1ccccc1)C(=O)N[C@H](C(=O)N[C@H](C(=O)N1CCC[C@H]1C(=O)N[C@@H](CC(C)C)C(=O)N[C@@H](CC(C)C)C(=O)N[C@@H](CC(C)C)C(=O)N[C@@H](CC(C)C)C(=O)N[C@@H](CC(=O)O)C(=O)N[C@@H](CC(C)C)C(=O)N[C@@H](C)C(=O)N[C@@H](CC(C)C)C(=O)N[C@@H](CC(C)C)C(=O)N[C@H](C(=O)N[C@@H](CC(=O)O)C(=O)N[C@@H](C)C(=O)N[C@@H](CC(=O)O)C(=O)N[C@@H](CCC(=O)O)C(=O)N[C@@H](CSSC1(COC(=O)N[C@H]2CCc3c(C)c(F)cc4nc5c(c2c34)Cn2c-5cc3c(c2=O)COC(=O)[C@]3(O)CC)CCC1)C(=O)NCC(=O)O)C(C)C)[C@@H](C)O)[C@@H](C)O` [Compound 3] (H-AEQNPIYWARYADWLFTTPLLLLDLALLVDADEC(X6)G-OH; N-terminus and C-terminus assumed): the IC50 in the test with HCT116 (HCT116 cells, 96 h after addition of drug, read-out: HCT116 (IC50)) is 8.33 nM; in the test on HeLa cells (HeLa cells, 96 h after addition of drug, read-out: HeLa (IC50)) it was 7.6 nM; in the test on FaDu (FaDu cells, 96 h after addition of drug, read-out: FaDu (IC50)) it was 5.9 nM.

For the molecule `CC[C@H](C)[C@H](NC(=O)[C@@H]1CCCN1C(=O)[C@H](CC(N)=O)NC(=O)[C@H](CCC(N)=O)NC(=O)[C@H](CCC(=O)O)NC(=O)[C@H](C)N)C(=O)N[C@@H](Cc1ccc(O)cc1)C(=O)N[C@@H](Cc1c[nH]c2ccccc12)C(=O)N[C@@H](C)C(=O)N[C@@H](CCCNC(=N)N)C(=O)N[C@@H](Cc1ccc(O)cc1)C(=O)N[C@@H](C)C(=O)N[C@@H](CC(=O)O)C(=O)N[C@@H](Cc1c[nH]c2ccccc12)C(=O)N[C@@H](CC(C)C)C(=O)N[C@@H](Cc1ccccc1)C(=O)N[C@H](C(=O)N[C@H](C(=O)N1CCC[C@H]1C(=O)N[C@@H](CC(C)C)C(=O)N[C@@H](CC(C)C)C(=O)N[C@@H](CC(C)C)C(=O)N[C@@H](CC(C)C)C(=O)N[C@@H](CC(=O)O)C(=O)N[C@@H](CC(C)C)C(=O)N[C@@H](C)C(=O)N[C@@H](CC(C)C)C(=O)N[C@@H](CC(C)C)C(=O)N[C@H](C(=O)N[C@@H](CC(=O)O)C(=O)N[C@@H](C)C(=O)N[C@@H](CC(=O)O)C(=O)N[C@@H](CCC(=O)O)C(=O)N[C@@H](CSS[C@@H](C)[C@@H](C)OC(=O)N[C@H]1CCc2c(C)c(F)cc3nc4c(c1c23)Cn1c-4cc2c(c1=O)COC(=O)[C@]2(O)CC)C(=O)NCC(=O)O)C(C)C)[C@@H](C)O)[C@@H](C)O` [Compound 6] (H-AEQNPIYWARYADWLFTTPLLLLDLALLVDADEC(X1)G-OH; N-terminus and C-terminus assumed), the IC50 in the test on HCT116 (96 h) was determined as 1 nM; with DLD-1 WT cells (96 h), 13.9 nM; in the test on HeLa cells (96 h), 0.62 nM; with FaDu (96 h), 0.76 nM.

`CC[C@H](C)[C@H](NC(=O)[C@@H]1CCCN1C(=O)[C@H](CC(N)=O)NC(=O)[C@H](CCC(N)=O)NC(=O)[C@H](CCC(=O)O)NC(=O)[C@H](C)N)C(=O)N[C@@H](Cc1ccc(O)cc1)C(=O)N[C@@H](Cc1c[nH]c2ccccc12)C(=O)N[C@@H](C)C(=O)N[C@@H](CCCNC(=N)N)C(=O)N[C@@H](Cc1ccc(O)cc1)C(=O)N[C@@H](C)C(=O)N[C@@H](CC(=O)O)C(=O)N[C@@H](Cc1c[nH]c2ccccc12)C(=O)N[C@@H](CC(C)C)C(=O)N[C@@H](Cc1ccccc1)C(=O)N[C@H](C(=O)N[C@H](C(=O)N1CCC[C@H]1C(=O)N[C@@H](CC(C)C)C(=O)N[C@@H](CC(C)C)C(=O)N[C@@H](CC(C)C)C(=O)N[C@@H](CC(C)C)C(=O)N[C@@H](CC(=O)O)C(=O)N[C@@H](CC(C)C)C(=O)N[C@@H](C)C(=O)N[C@@H](CC(C)C)C(=O)N[C@@H](CC(C)C)C(=O)N[C@H](C(=O)N[C@@H](CC(=O)O)C(=O)N[C@@H](C)C(=O)N[C@@H](CC(=O)O)C(=O)N[C@@H](CCC(=O)O)C(=O)N[C@@H](CSS[C@H](C)[C@@H](C)OC(=O)N[C@H]1CCc2c(C)c(F)cc3nc4c(c1c23)Cn1c-4cc2c(c1=O)COC(=O)[C@]2(O)CC)C(=O)NCC(=O)O)C(C)C)[C@@H](C)O)[C@@H](C)O` [Compound 4] (H-AEQNPIYWARYADWLFTTPLLLLDLALLVDADEC(X2)G-OH; N-terminus and C-terminus assumed): the IC50 in the test on HCT116 (96 h) came out at 0.1 nM; in the test on DLD-1 WT cells (96 h) it was 0.8 nM; in the test with HeLa cells (96 h) it was 0.07 nM; in the test with FaDu (96 h), 0.06 nM.
